Target: Serotonin 3 (5-HT3) receptor (Rattus norvegicus) (UniProt P35563+Q9JJ16)
Test: Antagonistic activity against 5-hydroxytryptamine 3 receptor as inhibition of 5-HT-induced bradycardia (von Bezold-jarisch reflex) in anesthetized rat
Format: functional

`CN1C2CCC1CC(n1nnc3cc([N+](=O)[O-])c(Cl)cc3c1=O)C2` (stereo unspecified) and `CN1C2CCC1CC(n1nnc3ccc(Cl)cc3c1=O)C2` (stereo unspecified) are within 1.5-fold of each other in ID50: 0.013 mg/kg for the first, 0.012 mg/kg for the second.

`COc1ccc(Cl)cc1C(=O)NC1CC2CCC(C1)N2C` (stereo unspecified) and `COc1cc(N)ccc1C(=O)NC1CC2CCC(C1)N2C` (stereo unspecified) are within 1.5-fold of each other in ID50: 0.015 mg/kg for the first, 0.016 mg/kg for the second.

Going from `CN1[C@@H]2CC[C@H]1C[C@@H](OC(=O)c1cc(Cl)cc(Cl)c1)C2` to `CN1[C@@H]2CC[C@H]1C[C@@H](OC(=O)c1c[nH]c3ccccc13)C2`, the ID50 falls from 0.035 mg/kg to 0.0014 mg/kg (25-fold).

Compared with `Nc1cc2nnn(C3CN4CCC3CC4)c(=O)c2cc1Cl` (stereo unspecified), `CN1C2CCC1CC(n1cnc3cc(N)c(Cl)cc3c1=O)C2` (stereo unspecified) is 92-fold higher in ID50: 0.0036 mg/kg for the first, 0.33 mg/kg for the second.

First: CN1C2CCC1CC(n1nnc3ccccc3c1=O)C2 (stereo unspecified)
Second: CN1C2CCC1CC(NC(=O)c1ccc(N)c(Cl)c1)C2 (stereo unspecified)
The ID50 of the first is higher: > 0.05 mg/kg for the first, 0.036 mg/kg for the second.

`COc1cc(N)c(Cl)cc1C(=O)NC1CC2CCC(C1)N2C` (stereo unspecified) was tested, and the ID50 was 0.0008 mg/kg.

Source: ChEMBL document CHEMBL1125070, “Benzotriazinones as "virtual ring" mimics of o-methoxybenzamides: novel and potent 5-HT3 receptor antagonists” (J Med Chem, 1990)
